Reference: US7067500B2, “Betaines as adjuvants to susceptibility testing and antimicrobial therapy” (priority 1997, dated 2006)
Structures can show the parent of a compound that is named as a salt.

System: M. fortuitum complex isolates ATCC 6841 and 495-JHH
Assay: CB-18 titration, BACTEC 12B growth curves
Format: cell-based
Conditions: M. fortuitum 495-JHH

SMILES: CCCCCCCCCCCCCCCCCC[N+](C)(C)CCCC(=O)[O-] [CB-18, N-(3-carboxypropyl)-N,N-dimethyl-1-octadecanaminium, inner salt]
- CB-18 concentration at which the isolate was viable / able to grow to some degree (CB-18 alone): 109 µg/mL
- CB-18 concentration at which growth was affected to some degree (combined with cefoxitin): 13 µg/mL
- CB-18 concentration at which growth was completely inhibited (combined with cefoxitin): 27 µg/mL
